Reference: patent US20260274856A1, “COVALENT CEREBLON LIGANDS” (C4 THERAPEUTICS, INC., priority 2023, published 2026)
Like-named read-outs stand apart in the source and are kept apart here.

Biological target: cellular cereblon (CRBN) (Homo sapiens, UniProt Q96SW2)
Assay: NanoBRET Target Engagement Assay, competition with pomalidomide tracer in 293T.116 cells
Conditions: for NanoBRET TE 293T.116 CRBN 2 hours IP nM / NanoBRET TE 293T.116 CRBN 6 hours IP nM / NanoBRET TE 293T.116 CRBN 24 hours IP nM / IC50: 293T.116 cells
[1] = NanoBRET TE 293T.116 CRBN 2 hours IC50 nM, 2 hours incubation
[2] = NanoBRET TE 293T.116 CRBN 6 hours IC50 nM, 6 hours incubation
[3] = NanoBRET TE 293T.116 CRBN 24 hours IC50 nM, 24 hours incubation
[4] = read-out: NanoBRET TE 293T.116 CRBN 2 hours Emax
[5] = read-out: NanoBRET TE 293T.116 CRBN 6 hours Emax
[6] = read-out: NanoBRET TE 293T.116 CRBN 24 hours Emax

With `Cc1ccc(OC2CCC(=O)NC2=O)cc1OS(=O)(=O)F` (stereo not drawn) [Compound A-19, 5-((2,6-dioxopiperidin-3-yl)oxy)-2-methylphenyl sulfurofluoridate] the “NanoBRET TE 293T.116 CRBN 2 hours IP nM” value (2 hours incubation) was “** (<10 μM and >1 μM is **)”, the “NanoBRET TE 293T.116 CRBN 6 hours IP nM” value (6 hours incubation) was “** (<10 μM and >1 μM is **)” and the “NanoBRET TE 293T.116 CRBN 24 hours IP nM” value (24 hours incubation) was “** (<10 μM and >1 μM is **)”. For the same compound, the IC50 [1] was 1000 to 10000 nM, the IC50 [2] was 1000 to 10000 nM and the IC50 [3] was 1000 to 10000 nM. It also gave an Emax [4] of less than 50%, an Emax [5] of less than 50% and an Emax [6] of less than 50%.

With `Cn1nc(N2CCC(=O)NC2=O)c2cccc(S(=O)(=O)F)c21` [Compound A-10, 3-(2,4-dioxotetrahydropyrimidin-1(2H)-yl)-1-methyl-1H-indazole-7-sulfonyl fluoride] the “NanoBRET TE 293T.116 CRBN 2 hours IP nM” value (2 hours incubation) was “*** (<= 1 μM is ***)”, the “NanoBRET TE 293T.116 CRBN 6 hours IP nM” value (6 hours incubation) was “*** (<= 1 μM is ***)” and the “NanoBRET TE 293T.116 CRBN 24 hours IP nM” value (24 hours incubation) was “*** (<= 1 μM is ***)”. The IC50 [1] was less than 1000 nM, the IC50 [2] was less than 1000 nM and the IC50 [3] was less than 1000 nM. The Emax [4] was less than 50%, the Emax [5] was less than 50% and the Emax [6] was less than 50%.

With `O=C1CCN(c2ccc(N3CCNCC3)c(OS(=O)(=O)F)c2)C(=O)N1` [drawing 1166] the “NanoBRET TE 293T.116 CRBN 24 hours IP nM” value (24 hours incubation) was “** (<10 μM and >1 μM is **)”, the IC50 [3] was 1000 to 10000 nM and the Emax [6] was less than 50%.

`O=C1CCC(c2cccc(OS(=O)(=O)F)c2)C(=O)N1` (stereo not drawn) [Compound A-23, 3-(2,6-dioxopiperidin-3-yl)phenyl sulfurofluoridate] was tested, and the “NanoBRET TE 293T.116 CRBN 6 hours IP nM” value (6 hours incubation) was “** (<10 μM and >1 μM is **)”, the “NanoBRET TE 293T.116 CRBN 24 hours IP nM” value (24 hours incubation) was “** (<10 μM and >1 μM is **)” and the IC50 [2] was 1000 to 10000 nM. It also gave an IC50 [3] of 1000 to 10000 nM, an Emax [5] of less than 50% and an Emax [6] of less than 50%.

In the case of `O=C1CCC(Oc2ccc(C3CCNCC3)c(S(=O)(=O)F)c2)C(=O)N1` (stereo not drawn) [Compound A-38, 5-((2,6-dioxopiperidin-3-yl)oxy)-2-(piperidin-4-yl)benzenesulfonyl fluoride], the “NanoBRET TE 293T.116 CRBN 2 hours IP nM” value (2 hours incubation) is reported as “*** (<= 1 μM is ***)”, the “NanoBRET TE 293T.116 CRBN 6 hours IP nM” value (6 hours incubation) is reported as “*** (<= 1 μM is ***)” and the “NanoBRET TE 293T.116 CRBN 24 hours IP nM” value (24 hours incubation) is reported as “*** (<= 1 μM is ***)”. For the same compound, the IC50 [1] was less than 1000 nM, the IC50 [2] was less than 1000 nM and the IC50 [3] was less than 1000 nM. For the same compound, the Emax [4] was less than 50%, the Emax [5] was less than 50% and the Emax [6] was less than 50%.

`O=C1CCC(Oc2ccc(S(=O)(=O)F)cn2)C(=O)N1` (stereo not drawn) [Compound A-9, 6-((2,6-dioxopiperidin-3-yl)oxy)pyridine-3-sulfonyl fluoride] was tested, and the “NanoBRET TE 293T.116 CRBN 6 hours IP nM” value (6 hours incubation) was “** (<10 μM and >1 μM is **)”, the “NanoBRET TE 293T.116 CRBN 24 hours IP nM” value (24 hours incubation) was “* (>=10 μM is *)” and the IC50 [2] was 1000 to 10000 nM. For the same compound, the IC50 [3] was greater than 10000 nM, the Emax [5] was less than 50% and the Emax [6] was 50 to 80%.

With `O=C1CCC(Nc2ccc(C3CCNCC3)c(OS(=O)(=O)F)c2)C(=O)N1` (stereo not drawn) [Compound A-31, 5-((2,6-dioxopiperidin-3-yl)amino)-2-(piperidin-4-yl)phenyl sulfurofluoridate] the “NanoBRET TE 293T.116 CRBN 2 hours IP nM” value (2 hours incubation) was “*** (<= 1 μM is ***)”, the “NanoBRET TE 293T.116 CRBN 6 hours IP nM” value (6 hours incubation) was “*** (<= 1 μM is ***)” and the “NanoBRET TE 293T.116 CRBN 24 hours IP nM” value (24 hours incubation) was “*** (<= 1 μM is ***)”. The IC50 [1] was less than 1000 nM, the IC50 [2] was less than 1000 nM and the IC50 [3] was less than 1000 nM. It also gave an Emax [4] of less than 50%, an Emax [5] of less than 50% and an Emax [6] of less than 50%.

For `Cn1nc(N2CCC(=O)NC2=O)c2cccc(OS(=O)(=O)F)c21` [Compound A-30, 3-(2,4-dioxotetrahydropyrimidin-1(2H)-yl)-1-methyl-1H-indazol-7-yl sulfurofluoridate], the “NanoBRET TE 293T.116 CRBN 2 hours IP nM” value (2 hours incubation) was “** (<10 μM and >1 μM is **)”, the “NanoBRET TE 293T.116 CRBN 6 hours IP nM” value (6 hours incubation) was “*** (<= 1 μM is ***)” and the “NanoBRET TE 293T.116 CRBN 24 hours IP nM” value (24 hours incubation) was “** (<10 μM and >1 μM is **)”. The IC50 [1] was 1000 to 10000 nM, the IC50 [2] was less than 1000 nM and the IC50 [3] was 1000 to 10000 nM. For the same compound, the Emax [4] was less than 50%, the Emax [5] was less than 50% and the Emax [6] was less than 50%.

For `O=C1NC(=O)C2(Nc3ccc(S(=O)(=O)F)cc3)CC1C2` [Compound A-33, 4-((2,4-dioxo-3-azabicyclo[3.1.1]heptan-1-yl)amino)benzenesulfonyl fluoride], the “NanoBRET TE 293T.116 CRBN 2 hours IP nM” value (2 hours incubation) was “** (<10 μM and >1 μM is **)”, the “NanoBRET TE 293T.116 CRBN 6 hours IP nM” value (6 hours incubation) was “** (<10 μM and >1 μM is **)” and the “NanoBRET TE 293T.116 CRBN 24 hours IP nM” value (24 hours incubation) was “** (<10 μM and >1 μM is **)”. The IC50 [1] was 1000 to 10000 nM, the IC50 [2] was 1000 to 10000 nM and the IC50 [3] was 1000 to 10000 nM. For the same compound, the Emax [4] was less than 50%, the Emax [5] was less than 50% and the Emax [6] was less than 50%.

`COc1ccc(OC2CCC(=O)NC2=O)cc1S(=O)(=O)F` (stereo not drawn) [Compound A-16, 5-[(2,6-dioxo-3-piperidyl)oxy]-2-methoxy-benzenesulfonyl fluoride] was tested, and the “NanoBRET TE 293T.116 CRBN 2 hours IP nM” value (2 hours incubation) was “*** (<= 1 μM is ***)”, the “NanoBRET TE 293T.116 CRBN 6 hours IP nM” value (6 hours incubation) was “*** (<= 1 μM is ***)” and the “NanoBRET TE 293T.116 CRBN 24 hours IP nM” value (24 hours incubation) was “*** (<= 1 μM is ***)”. It also gave an IC50 [1] of less than 1000 nM, an IC50 [2] of less than 1000 nM and an IC50 [3] of less than 1000 nM. It also gave an Emax [4] of less than 50%, an Emax [5] of less than 50% and an Emax [6] of less than 50%.
